Converted amounts (≈) assume the structure as drawn. Where two headings read alike, the source gives them in different places.
How the values were obtained:
[1] = Larval settlement bioassay, barnacle Balanus amphitrite cyprids; type: in vivo; conditions: Balanus amphitrite (barnacle), cyprid larvae, in vivo, other: immersion, sample added to the seawater in the well
Experimental: (§1) The nauplii were reared in freshly filtered nature seawater (FSW, 0.45 μm, 32 S salinity) and fed with Chaetoceros gracilis Schutt at 24° C. in the Coastal Marine Laboratory the Hong Kong University of Science and Technology (HKUST). Cyprids were stored for 2 days at 8° C. (aged cyprids) prior to being used in the bioassays. Ten μl of each test sample dissolved in dimethyl sulfoxide (DMSO) were transferred into a well in 24-well polystyrene plate after the addition of 1 ml of FSW. The control wells contained 1 ml of FSW and 10 μl of DMSO. About 15 cyprids were added in each well with triplicate samples being tested.

[2] = test system: Balanus amphitrite larvae; assay: as above; type: in vivo; conditions: for concentration at which significant inhibition of larval settlement was observed / inhibition of larval settlement (in words): B. amphitrite; for concentration at which significant inhibition of larval settlement was observed: compared with controls; for toxicity rating from LC50/EC50 ratio: according to Avelin et al. 1993 and Rittschof et al. 1994, ratios for all tested larvae
Experimental: as §1

[3] = Larval settlement bioassay, Hydroides elegans competent larvae; type: in vivo; conditions: competent larvae, in vivo, other: immersion, sample added to the seawater in the well; Hydroides elegans; highest concentration examined causing <50% death of larvae
Experimental: (§2) The 24-well plates were incubated at 28° C. for 24 h under a 15 h light/9 h dark photoperiod. The percentage of larval settlement and larval mortality was determined by counting the settled, live individuals under a dissecting microscope and expressing the result as a proportion of the total number of larvae in the well.

Hydroides elegans larvae = assay: as above; type: in vivo; conditions: for concentration at which significant inhibition of larval settlement was observed / inhibition of larval settlement (in words): H. elegans; for concentration at which significant inhibition of larval settlement was observed: compared with controls; for EC50: Hydroides elegans, 24 h, mean of at least three replicates, read-out: EC50 against larval settlement
Experimental: as §2

Bugula neritina larvae = assay: Larval settlement bioassay, Bugula neritina; conditions: for inhibition of larval settlement (in words): B. neritina
[4] = Degradation in buffer solutions and seawater; type: physicochemical
in vivo = conditions: Bugula neritina, larvae
[5] = Table 3, Balanus amphitrite larvae
[6] = Amphibalanus amphitrite, Table 3, Balanus amphitrite larvae, value ± spread, read-out: EC50
[7] = Balanus amphitrite, highest concentration examined causing <50% death of larvae
[8] = Amphibalanus amphitrite, 24 h, Balanus amphitrite, 24 h, mean of at least three replicates, read-out: EC50 against larval settlement
[9] = Table 3, Balanus amphitrite larvae, value ± spread

Row | SMILES | LC50 at 24 h [1, 5] [µg/mL] | EC50 [2, 6] [µg/mL] | LC50 at 24 h [1, 7] [µg/mL] | EC50 [2, 8] [µg/mL] | LC50 at 24 h [3] [µg/mL] | concentration at which significant inhibition of larval settlement was observed (Hydroides elegans larvae) [µg/mL] | EC50 (Hydroides elegans larvae) [µg/mL] | LC50 [2, 5] [µg/mL] | EC50 [2, 9] [µg/mL] | further results
1 | CC(O)C(C)(O)CCCC1C=CC(=O)O1 (single isomer, unassigned) [Compound 11] | > 100 | > 100 |  |  |  |  |  |  |  | 
2 | CCC(C)(O)CCCCCC1C=CC(=O)O1 (centres unmarked) [Compound 1] | > 100 | 14.8 ± 5.54 (≈ 65.4 µM) | > 100 | 14.8 (≈ 65.4 µM) | > 100 | 10 | 12 (≈ 53 µM) |  |  | concentration at which significant inhibition of larval settlement was observed [2]: 10 µg/mL
3 | CC(O)C(C)CCCCCC1C=CC(=O)O1 (centres unmarked) [Compound 2] | > 100 | 9.65 ± 1.5 (≈ 42.6 µM) | > 100 | 9.65 (≈ 42.6 µM) | > 100 | 5 | 4.4 (≈ 19.4 µM) |  |  | concentration at which significant inhibition of larval settlement was observed [2]: 10 µg/mL
4 | CC(=O)C(C)CCCCCC1C=CC(=O)O1 (centres unmarked) [Compound 3] | > 100 | 8.67 ± 2.73 (≈ 38.7 µM) | > 100 | 8.67 (≈ 38.7 µM) | > 100 | 5 | 5.6 (≈ 25 µM) |  |  | concentration at which significant inhibition of larval settlement was observed [2]: 25 µg/mL
5 | CC(C)(O)CCCCCC1C=CC(=O)O1 (centres unmarked) [Compound 4] | > 140 | > 100 | > 140 | > 100 | > 40 | 8 | 12.7 (≈ 59.8 µM) |  |  | inhibition of larval settlement (in words) [2]: efficient against the larval settlements especially for B. amphitrite
6 | CC(CCCCCC1C=CC(=O)O1)C(C)OC1CCCCO1 (centres unmarked) [Compound 5] | > 80 | 3.6 ± 0.56 (≈ 11.6 µM) | > 80 | 3.6 (≈ 11.6 µM) | > 100 |  | 6.4 (≈ 20.6 µM) |  |  | inhibition of larval settlement (in words) [2]: distinct inhibition effects; toxicity rating from LC50/EC50 ratio [2]: nontoxic or low toxic compound; inhibition of larval settlement (in words) (Hydroides elegans larvae): distinct inhibition effects; inhibition of larval settlement (in words) (Bugula neritina larvae): distinct inhibition effects
7 | CCCCCCCCC1C=CC(=O)O1 (centres unmarked) [Compound 6, 5-octylfuran-2-one] | > 50 | 0.52 ± 0.06 (≈ 2.65 µM) | > 50 | 0.52 (≈ 2.65 µM) | > 2 |  | 0.017 (≈ 0.0866 µM) |  |  | inhibition of larval settlement (in words) [2]: distinct inhibition effects; toxicity rating from LC50/EC50 ratio [2]: nontoxic or low toxic compound; inhibition of larval settlement (in words) (Hydroides elegans larvae): distinct inhibition effects; degradation in natural seawater [4]: can be easily degradated in natural seawater; LC50 (in vivo): > 50 µg/mL; inhibition of larval settlement (in words) (Bugula neritina larvae): distinct inhibition effects; EC50 against larval settlement (Bugula neritina larvae; Bugula neritina, mean of at least three replicates): 0.2 µg/mL (≈ 1.02 µM)
8 | CC(O)C(C)(O)CCCC1C=CC(=O)O1 (centres unmarked) [Compound 7] |  |  |  |  |  |  |  | >25 | 4.82 ± 1.25 (≈ 22.5 µM) | 
9 | CC(O)C(C)(O)CCCC1C=CC(=O)O1 (centres unmarked) [Compound 8] |  |  |  |  |  |  |  | >100 | >100 | 
10 | CC(O)C(C)(O)CCCC1C=CC(=O)O1 (centres unmarked) [Compound 9] |  |  |  |  |  |  |  | >100 | >100 | 
11 | CC(O)C(C)(O)CCCC1C=CC(=O)O1 (centres unmarked) [Compound 10] |  |  |  |  |  |  |  | >100 | >100 | 

Source: US8177896B2, “Antifouling furan-2-one derivatives” (The Hong Kong University of Science and Technology, priority 2008, dated 2012)
